According to PubChem BioAssay (NCI):
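Interpolation was linear, between the two tested concentrations surrounding the appropriate level; five concentrations were tested over 48 hours in 96-well plates. TGI: total growth inhibition.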

Tests used:
Test in all cases: NCI anticancer screen, dose series, 48 h
MOLT-4 leukemia = test system: MOLT-4 leukemia
LXFL 529 NSCLC = test system: LXFL 529 NSCLC
XF 498 CNS = test system: XF 498 CNS
COLO 205 colon = test system: COLO 205 colon
OVCAR-8 ovarian = test system: OVCAR-8 ovarian
OVCAR-5 ovarian = test system: OVCAR-5 ovarian
HCT-15 colon = test system: HCT-15 colon
HT29 colon = test system: HT29 colon
HCT-116 colon = test system: HCT-116 colon
ACHN renal = test system: ACHN renal
TK-10 renal = test system: TK-10 renal
HCC-2998 colon = test system: HCC-2998 colon
KM12 colon = test system: KM12 colon
CCRF-CEM leukemia = test system: CCRF-CEM leukemia
SK-MEL-2 melanoma = test system: SK-MEL-2 melanoma
SF-268 CNS = test system: SF-268 CNS
RXF-631 renal = test system: RXF-631 renal
UACC-257 melanoma = test system: UACC-257 melanoma
U251 CNS = test system: U251 CNS
EKVX NSCLC = test system: EKVX NSCLC
KM20L2 colon = test system: KM20L2 colon
LOX IMVI melanoma = test system: LOX IMVI melanoma
DMS 114 small cell lung = test system: DMS 114 small cell lung
IGROV1 ovarian = test system: IGROV1 ovarian
SF-295 CNS = test system: SF-295 CNS
NCI-H460 lung = test system: NCI-H460 lung
NCI-H23 lung = test system: NCI-H23 lung
RXF 393 renal = test system: RXF 393 renal
NCI-H226 lung = test system: NCI-H226 lung
SW-620 colon = test system: SW-620 colon
RPMI-8226 leukemia = test system: RPMI-8226 leukemia
HOP-62 NSCLC = test system: HOP-62 NSCLC
A549 NSCLC = test system: A549 NSCLC
K-562 leukemia = test system: K-562 leukemia
SK-MEL-5 melanoma = test system: SK-MEL-5 melanoma
SK-OV-3 ovarian = test system: SK-OV-3 ovarian
HOP-18 NSCLC = test system: HOP-18 NSCLC
NCI-H522 lung = test system: NCI-H522 lung
HL-60(TB) leukemia = test system: HL-60(TB) leukemia
786-0 renal = test system: 786-0 renal
CAKI-1 renal = test system: CAKI-1 renal
DMS 273 small cell lung = test system: DMS 273 small cell lung
M19-MEL melanoma = test system: M19-MEL melanoma
DLD-1 colon = test system: DLD-1 colon
SR leukemia = test system: SR leukemia
SNB-19 CNS = test system: SNB-19 CNS
SF-539 CNS = test system: SF-539 CNS
MALME-3M melanoma = test system: MALME-3M melanoma
UACC-62 melanoma = test system: UACC-62 melanoma
SN12C renal = test system: SN12C renal
HOP-92 NSCLC = test system: HOP-92 NSCLC
OVCAR-3 ovarian = test system: OVCAR-3 ovarian
SK-MEL-28 melanoma = test system: SK-MEL-28 melanoma
M14 melanoma = test system: M14 melanoma
A498 renal = test system: A498 renal
SNB-75 CNS = test system: SNB-75 CNS
OVCAR-4 ovarian = test system: OVCAR-4 ovarian
UO-31 renal = test system: UO-31 renal

Measured: TGI

Cc1nc2sccn2c1C(=O)N/N=C1\SCC(=O)N1C
not listed: M14 melanoma | A498 renal | SNB-75 CNS | OVCAR-4 ovarian | UO-31 renal
> 100 µM: all other assays above

CN1c2ccccc2NC(CC(=O)O)C2CC=CN21 (stereo unspecified)
not listed: HCT-116 colon | HCC-2998 colon | NCI-H226 lung | DLD-1 colon | SR leukemia
> 100 µM: all other assays above
